Measured values published in US7456274B2, “Inhibition of metallo-β-lactamase” (priority 2003, dated 2008).
“Also recorded” adds a separate entry of the source. Read-outs that look alike come from different tables or passages of the source.

Experiments:
class B β-lactamases = details: cited from earlier work
[1] = target: B. cereus 5/B/6 metallo-β-lactamase (Bacillus cereus, UniProt P14488); assay type: biochemical; details: for inhibition pattern from steady-state kinetic study: Lineweaver-Burk plot; for IC50: enzyme preincubated 15 min at 30° C. in 50 mM MOPS, 4 mM cephalosporin C; for IC50 / time dependence of the reversible inhibition: pH=7.0; for time dependence of the reversible inhibition: 50 mM MOPS, cephalosporin C
[2] = target: metallo-β-lactamases (Bacillus cereus enzyme) (Bacillus cereus, UniProt P04190); details: Mollard et al. (2001); cited from earlier work
[3] = target: T1, bovine carboxypeptidase A (Bos taurus, UniProt P00730); experiment: Bovine carboxypeptidase A assay (hippuryl-L-phenylalanine hydrolysis), specificity test; assay type: biochemical; details: 25 nM; 1 mM hippuryl-L-phenylalanine; 25° C., pH=7.5
T1 construct: purchased Sigma
T1 sequence (P00730 111-419): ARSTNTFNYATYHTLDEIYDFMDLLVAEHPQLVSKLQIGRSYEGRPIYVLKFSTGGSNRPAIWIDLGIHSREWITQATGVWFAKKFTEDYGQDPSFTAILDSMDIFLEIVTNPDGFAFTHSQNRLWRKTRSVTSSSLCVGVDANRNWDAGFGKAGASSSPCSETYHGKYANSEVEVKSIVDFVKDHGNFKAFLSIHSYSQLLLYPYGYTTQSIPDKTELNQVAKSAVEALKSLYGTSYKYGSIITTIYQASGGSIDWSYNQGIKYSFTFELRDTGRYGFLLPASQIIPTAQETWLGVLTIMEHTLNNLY
Procedure: Method for assay of bovine carboxypeptidase A. The assay of bovine carboxypeptidase A is based on the method of Folk and Schirmer (1963). The rate of hydrolysis of hippuryl-L-phenylalanine is determined by monitoring the increase in absorbance at 254 nm ([…], pH=7.5). The enzyme was dissolved in 10% lithium chloride to a concentration of 1-3 units per mL. Hippuryl-L-phenylalanine (0.001 M) was dissolved in 0.05 M TrisHCl, pH=7.5 with 0.5 M sodium chloride. In a 1 cm of cuvette, 1.0 mL of substrate was added and incubated in the spectrophotometer at 25° C. for 3-4 minutes to reach temperature equilibration and establish blank rate. Fifty μL of diluted enzyme was added to record increase in A254. The enzyme was preincubated with/without the inhibitor in the buffer for 15 min. at 25° C.

[4] = target: metallo-β-lactamase from B. fragilis (Bacteroides fragilis, UniProt P25910); details: NMR characterization; Scrofani et al. (1999); cited from earlier work
[5] = target: metallo-β-lactamase from Stenotrophomonas maltophilia (Stenotrophomonas maltophilia, UniProt P52700); details: Yang and Crowder (1999); cited from earlier work
[6] = intercept replot of Lineweaver-Burk data, read-out: Ki′ (dissociation constant for the inhibitor from the enzyme-substrate-inhibitor complex)
[7] = slope replot of Lineweaver-Burk data, read-out: Ki (dissociation constant for the inhibitor from the enzyme-inhibitor complex)

metallo-β-lactamase from Stenotrophomonas maltophilia, sequence (P52700 34-290): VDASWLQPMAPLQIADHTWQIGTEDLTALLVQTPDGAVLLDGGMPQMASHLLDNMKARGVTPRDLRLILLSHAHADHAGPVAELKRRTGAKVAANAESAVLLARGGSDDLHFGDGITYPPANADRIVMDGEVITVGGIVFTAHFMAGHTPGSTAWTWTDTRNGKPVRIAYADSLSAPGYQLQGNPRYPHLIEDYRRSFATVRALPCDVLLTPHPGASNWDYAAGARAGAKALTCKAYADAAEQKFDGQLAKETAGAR
B. cereus 5/B/6 metallo-β-lactamase, sequence (P14488 30-256): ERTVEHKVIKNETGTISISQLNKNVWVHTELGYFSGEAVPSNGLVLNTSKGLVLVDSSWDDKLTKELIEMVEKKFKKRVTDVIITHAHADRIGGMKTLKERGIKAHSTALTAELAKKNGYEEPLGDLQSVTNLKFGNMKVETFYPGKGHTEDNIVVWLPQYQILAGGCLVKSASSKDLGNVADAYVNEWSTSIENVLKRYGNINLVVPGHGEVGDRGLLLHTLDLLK
metallo-β-lactamases (Bacillus cereus enzyme), sequence (P04190 31-257): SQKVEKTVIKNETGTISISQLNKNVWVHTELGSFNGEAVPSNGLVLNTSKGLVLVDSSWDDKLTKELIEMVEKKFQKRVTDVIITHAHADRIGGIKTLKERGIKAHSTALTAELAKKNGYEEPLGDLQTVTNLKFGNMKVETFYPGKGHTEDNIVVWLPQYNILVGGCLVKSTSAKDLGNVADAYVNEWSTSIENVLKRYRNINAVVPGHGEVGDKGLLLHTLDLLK
metallo-β-lactamase from B. fragilis, sequence (P25910 19-249): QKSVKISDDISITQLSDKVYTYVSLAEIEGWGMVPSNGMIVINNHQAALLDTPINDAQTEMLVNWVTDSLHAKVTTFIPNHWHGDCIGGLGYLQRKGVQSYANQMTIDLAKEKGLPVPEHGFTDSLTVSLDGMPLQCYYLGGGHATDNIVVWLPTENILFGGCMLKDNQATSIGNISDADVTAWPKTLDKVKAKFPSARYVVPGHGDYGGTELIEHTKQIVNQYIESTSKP

Row | Compound | inhibition pattern from steady-state kinetic study [1] | IC50 [1] [µM] | Ki [1, 6] [nM] | Ki [1, 7] [nM] | other results
1 | O=C(O)[C@H]1/C(=C/CO)O[C@@H]2CC(=O)N21 [clavulanic acid] |  |  |  |  | inhibition of class B β-lactamases (class B β-lactamases): do not inhibit
2 | OCCS [2-mercaptoethanol, reference compound] | noncompetitive inhibition | 4 | 4000 | 2000 | 
3 | R-thiomandelic acid |  |  |  |  | Ki [2]: 90 nM
4 | 5′-d(CCAAACTTGG)-3′ [10-mer] | noncompetitive inhibition |  |  |  | effect on the activity of the carboxypeptidase A [3]: no effect; also recorded: did not show any inhibition; time dependence of the reversible inhibition ([1]; 1.0 nM of the 10-mer): time-independent; also recorded: not time-dependent; fold lower Ki than the Ki reported for R-thiomandelic acid ([1]; vs. Mollard et al. (2001)): 290 fold
5 | CC1(C)SCN(C(=O)[C@@H](CS)Cc2ccccc2)[C@H]1C(=O)O [3-[2′-(S)-benzyl-3′-mercaptopropanoyl]-4-(S)-carboxy-5,5-dimethylthiazolidine] |  |  |  |  | binding to metallo-β-lactamase [4]: “tightly” binds
6 | O=C1C[C@H]2SC=CN12 [penem] |  |  |  |  | inhibition of class B β-lactamases (class B β-lactamases): do not inhibit
7 | N-benzylacetyl-D-alanylthioacetic acid |  |  |  |  | Ki [5]: 1.6 ± 0.3 µM; type of inhibition [5]: competitive inhibitors
8 | O=C(O)CN(CCN(CC(=O)O)CC(=O)O)CC(=O)O [EDTA, reference compound] | noncompetitive inhibition | 3.1 | 2900 | 750 | 
9 | O=C(Cc1ccccc1)NCCS [N-(2′-mercaptoethyl)-2-phenylacetamide] |  |  |  |  | Ki [5]: 50 ± 3 µM; type of inhibition [5]: competitive inhibitors
10 | 5′-d(AACCAAACTTGGATCGGTGCACATGTCGAA)-3′ [30-mer] | noncompetitive inhibition | 0.0012 | 11 | 0.92 | effect on the activity of the carboxypeptidase A [3]: no effect; also recorded: did not show any inhibition; time dependence of the reversible inhibition ([1]; 0.5 nM the 30-mer): time-independent; also recorded: not time-dependent
